Target: T1, GAT1 (Homo sapiens, UniProt P30531)
T1 construct: expressed in transfected cells
Assay: FLIPR membrane potential (FMP) assay, CHO cells stably expressing GAT1
Format: cell-based
Conditions: n = 2
From the text: In order to scrutinize the mode of inhibition of bicyclo-GABA and the N-methylated derivative 2, the ability to be translocated by BGT1 was investigated in the functional FMP assay able to discriminate between substrates and inhibitors, as previously described ([Al-Khawaja et al., 2014]).
The tsA201 cell line (a transformed HEK293 cell line), the Flp-In CHO cell lines stably expressing human (h) GATs and the HEK293 cell line stably expressing human α1β2γ2 GABAA receptors have been described previously and were cultured accordingly ([Al-Khawaja et al., 2014]; [Falk-Petersen et al., 2020]). […]
The FMP assay performed on human α1β2γ2 GABAA receptors in HEK293 cells was performed as described and data analyzed accordingly ([Falk-Petersen et al., 2020]). […] Test compound solutions were prepared at 4x concentration in assay buffer and added to ligand plates pre-heated at 37°C for 10–15 min in the FLEXstation3 plate reader (Molecular Devices). After incubation, 33.3 µL test compound solution (4x) was automatically transferred to each well in the cell plate and the signal was measured for 90 s by measuring emission at 560 nm caused by excitation at 530 nm. […] Data obtained in the FMP assay are given as relative changes in fluorescence units (ΔRFU) by subtracting the average of the baseline fluorescence signal from the peak fluorescence signal after compound addition. […]

T1 sequence (P30531 whole entry): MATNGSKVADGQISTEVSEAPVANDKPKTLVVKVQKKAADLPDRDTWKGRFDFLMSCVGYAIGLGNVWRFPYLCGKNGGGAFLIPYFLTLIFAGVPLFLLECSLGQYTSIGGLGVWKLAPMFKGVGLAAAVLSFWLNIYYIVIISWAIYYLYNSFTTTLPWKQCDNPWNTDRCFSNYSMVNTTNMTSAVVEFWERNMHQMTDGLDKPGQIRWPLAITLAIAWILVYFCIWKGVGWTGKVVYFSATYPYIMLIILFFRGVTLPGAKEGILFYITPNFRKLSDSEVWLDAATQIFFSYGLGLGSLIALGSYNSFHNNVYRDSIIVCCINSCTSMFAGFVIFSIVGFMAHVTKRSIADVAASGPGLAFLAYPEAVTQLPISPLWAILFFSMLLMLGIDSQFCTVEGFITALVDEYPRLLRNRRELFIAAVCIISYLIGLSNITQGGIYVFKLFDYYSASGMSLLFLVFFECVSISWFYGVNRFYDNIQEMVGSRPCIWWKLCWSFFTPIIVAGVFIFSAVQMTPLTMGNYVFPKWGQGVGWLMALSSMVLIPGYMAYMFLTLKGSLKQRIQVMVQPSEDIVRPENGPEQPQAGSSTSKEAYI

Inhibitory effect at GAT1 (in the presence of GABA EC50 concentration (10 µM)): specific to BGT1 | Substrate activity at GAT1 (tested as substrate, without GABA): lack of activity
Compound: N[C@@]12CC[C@H](C(=O)O)[C@@H]1C2 [bicyclo-GABA, (1S,2S,5R)-5-aminobicyclo[3.1.0]hexane-2-carboxylic acid]

From paper PMC8476755 (Frontiers in Chemistry, 2021)
